Legend:
[1] = Selectivity ratio of IC50 for MMP8 to IC50 for MMP13
[2] = Selectivity ratio of IC50 for MMP2 to IC50 for MMP13
Collagenase 3 = Collagenase 3 (Homo sapiens, UniProt P45452)
[3] = Selectivity ratio of IC50 for MMP10 to IC50 for MMP13
[4] = Selectivity ratio of IC50 for MMP3 to IC50 for MMP13
Liver microsomes = assay: Metabolic stability in human liver microsomes; format: ADME, Microsome
[5] = Half life in rat at 1 mg/kg, iv; format: ADME, organism-based; design: dose 1 mg/kg, route intravenous; conditions: in vivo
Rattus norvegicus = assay: Clearance in rat as % of liver blood flow at 1 mg/kg, iv; format: ADME, organism-based; design: dose 1 mg/kg, route intravenous; conditions: in vivo
[6] = Aqueous solubility of the compound at pH 4.5; format: physicochemical; conditions: aqueous medium
[7] = Aqueous solubility of the compound at pH 7.4; format: physicochemical; conditions: aqueous medium
[8] = Volume of distribution at steady state in rat at 1 mg/kg, iv; format: ADME, organism-based; design: dose 1 mg/kg, route intravenous; conditions: in vivo, read-out: Vdss

Row | Ratio IC50 [1] | Ratio IC50 [2] | IC50 (Collagenase 3) | Ratio IC50 [3] | Ratio IC50 [4] | Stability (Liver microsomes) | solubility [6] | solubility [7] | Structure (SMILES) | half-life [5] | Fraction of Liver Blood Flow (Rattus norvegicus) | Vd [8]
1 | > 660 | 310 | 31 nM | 4 | – | – | – | – | CNC(=O)[C@H](NC(=O)c1ccc(-c2cccc(CNC(=O)c3ccncc3)c2)o1)C1CCCCC1 | – | – | –
2 | > 4900 | > 4900 | 4 nM | 87 | 240 | – | – | – | CNC(=O)[C@H](NC(=O)c1ccc(-c2cccc(CNC(=O)c3cccc(C)n3)c2)o1)C1CCCCC1 | – | – | –
3 | – | – | – | – | – | 60% | – | – | CNC(=O)[C@@H](NC(=O)c1ccc(-c2cccc(CNC(=O)c3cccc(C(F)(F)F)n3)c2)o1)C1CC1 | – | – | –
4 | > 270 | > 270 | 75 nM | 6 | 15 | – | – | – | CNC(=O)[C@H](NC(=O)c1ccc(-c2cccc(CNC(=O)c3ccco3)c2)o1)C1CCCCC1 | – | – | –
5 | – | – | – | – | – | 14% | > 50 µg/mL | > 50 µg/mL | CNC(=O)[C@@H](NC(=O)c1ccc(-c2cccc(CNC(=O)c3ccnc(C(F)(F)F)n3)c2)o1)C(C)(C)O | 57 min | 26% | 0.9 L/kg
6 | > 2000 | 290 | 10 nM | 9 | – | – | – | – | CNC(=O)[C@H](NC(=O)c1ccc(-c2cccc(CNC(=O)c3ccncn3)c2)o1)C1CCCCC1 | – | – | –
7 | > 37 | > 37 | 140 nM | 32 | > 37 | – | – | – | CNC(=O)[C@H](NC(=O)c1ccc(-c2cccc(CNC(=O)c3cn4ccc(C)cc4n3)c2)o1)C1CCCCC1 | – | – | –
8 | 7100 | 1500 | – | 130 | 330 | 83% | – | – | CNC(=O)[C@@H](NC(=O)c1ccc(-c2cccc(CNC(=O)c3cccc(C(F)(F)F)n3)c2)o1)C1CCOCC1 | – | – | –
9 | 48 | > 480 | 42 nM | 7 | – | – | – | – | CNC(=O)[C@H](NC(=O)c1ccc(-c2cccc(CNC(=O)c3cccnc3)c2)o1)C1CCCCC1 | – | – | –
10 | > 64 | > 64 | 310 nM | 9 | > 64 | – | – | – | CNC(=O)[C@H](NC(=O)c1ccc(-c2cccc(CNC(=O)c3nccn3C)c2)o1)C1CCCCC1 | – | – | –
11 | > 280 | > 280 | 72 nM | 19 | 51 | – | – | – | CNC(=O)[C@H](NC(=O)c1ccc(-c2cccc(CNC(=O)c3cc(C)n(C)n3)c2)o1)C1CCCCC1 | – | – | –
12 | > 2800 | > 2800 | 7 nM | 370 | > 2800 | 66% | – | – | CNC(=O)[C@H](NC(=O)c1ccc(-c2cccc(CNC(=O)c3ccnc(C(F)(F)F)n3)c2)o1)C1CCCCC1 | – | – | –
13 | > 45 | > 45 | 110 nM | 29 | > 45 | – | – | – | CNC(=O)[C@H](NC(=O)c1ccc(-c2cccc(CNC(=O)c3cn4cccc(C)c4n3)c2)o1)C1CCCCC1 | – | – | –
14 | > 11000 | 640 | – | 100 | 250 | 24% | – | – | CNC(=O)[C@@H](NC(=O)c1ccc(-c2cccc(CNC(=O)c3ccnc(C(F)(F)F)n3)c2)o1)C1CCOCC1 | – | – | –
15 | > 2400 | > 2400 | 8 nM | 65 | 200 | – | – | – | CNC(=O)[C@H](NC(=O)c1ccc(-c2cccc(CNC(=O)c3ccccn3)c2)o1)C1CCCCC1 | – | – | –
16 | > 110 | > 110 | 180 nM | 17 | > 110 | – | – | – | CNC(=O)[C@H](NC(=O)c1ccc(-c2cccc(CNC(=O)c3occc3C)c2)o1)C1CCCCC1 | – | – | –
17 | > 810 | > 770 | 25 nM | 440 | > 400 | 62% | – | – | CNC(=O)[C@@H](NC(=O)c1ccc(-c2cccc(CNC(=O)c3cccc(C(F)(F)F)n3)c2)o1)C(C)(C)O | – | – | –
18 | > 61 | > 61 | 330 nM | 8 | 9 | – | – | – | CNC(=O)[C@H](NC(=O)c1ccc(-c2cccc(CNC(=O)c3ccoc3C)c2)o1)C1CCCCC1 | – | – | –
19 | > 2100 | 850 | 9 nM | 50 | 200 | 70% | – | – | CNC(=O)[C@@H](NC(=O)c1ccc(-c2cccc(CNC(=O)c3ccnc(C(F)(F)F)n3)c2)o1)C(C)C | – | – | –
20 | > 200 | > 200 | 100 nM | 31 | 85 | – | – | – | CNC(=O)[C@H](NC(=O)c1ccc(-c2cccc(CNC(=O)c3ncccc3C)c2)o1)C1CCCCC1 | – | – | –
21 | > 820 | > 430 | 24 nM | 14 | 33 | – | – | – | CNC(=O)[C@H](NC(=O)c1ccc(-c2cccc(CNC(=O)c3ccn(C)n3)c2)o1)C1CCCCC1 | – | – | –
22 | > 2300 | > 2300 | 9 nM | > 2300 | > 2300 | 81% | – | – | CNC(=O)[C@H](NC(=O)c1ccc(-c2cccc(CNC(=O)c3cccc(C(F)(F)F)n3)c2)o1)C1CCCCC1 | – | – | –
23 | > 7 | 5 | 3300 nM | 0.5 | 3 | – | – | – | CNC(=O)[C@H](NC(=O)c1ccc(-c2cccc(CNC(C)=O)c2)o1)C1CCCCC1 | – | – | –

Row | Structure (SMILES) | Ratio IC50 [1] | Ratio IC50 [2] | IC50 (Collagenase 3) | Ratio IC50 [3] | Ratio IC50 [4] | Stability (Liver microsomes) | solubility [6] | solubility [7] | half-life [5] | Fraction of Liver Blood Flow (Rattus norvegicus) | Vd [8]
24 | CNC(=O)[C@@H](NC(=O)c1ccc(-c2cccc(CNC(=O)c3cccc(C(F)(F)F)n3)c2)o1)C(C)C | > 3600 | > 3600 | 6 nM | 260 | 1000 | 88% | – | – | – | – | –
25 | CNC(=O)[C@H](NC(=O)c1ccc(-c2cccc(CNC(=O)c3csc(C)n3)c2)o1)C1CCCCC1 | 1800 | 310 | 8 nM | 7 | – | – | – | – | – | – | –
26 | CCc1cncc(C(=O)NCc2cccc(-c3ccc(C(=O)N[C@@H](C(=O)NC)C4CCCCC4)o3)c2)c1 | > 170 | > 170 | 29 nM | 45 | > 170 | – | – | – | – | – | –
27 | CNC(=O)[C@H](NC(=O)c1ccc(-c2cccc(CNC(=O)c3ccnc(Cl)n3)c2)o1)C1CCCCC1 | > 7100 | 590 | 3 nM | 27 | – | – | – | – | – | – | –
28 | CNC(=O)[C@@H](NC(=O)c1ccc(-c2cccc(CNC(=O)c3ccnc(C(F)(F)F)n3)c2)o1)C1CC1 | > 560 | 580 | 36 nM | 170 | 540 | 69% | – | – | 42 min | 47% | 1.2 L/kg

From ChEMBL document CHEMBL1221301, “SAR studies of non-zinc-chelating MMP-13 inhibitors: improving selectivity and metabolic stability” (Bioorg Med Chem Lett, 2010)
